Like-named read-outs stand apart in the source and are kept apart here.
Legend:
WEE1 = molecular target: T1, WEE1 (Homo sapiens, UniProt P30291+Q96SW2); experiment: Western-blot assay of substrate protein degradation in hPBMCs, WEE1; assay type: cell-based; details: 24 hours of compound treatment
T1 construct: endogenous in cells; host or cells: hPBMCs (Milecell Biotechnologies)

IKZF1 = molecular target: T2, IKZF1 (Homo sapiens, UniProt Q13422+Q96SW2); experiment: Western-blot assay of substrate protein degradation in hPBMCs, IKZF1; assay type: cell-based; details: 24 hours of compound treatment
T2 construct: endogenous in cells; host or cells: hPBMCs (Milecell Biotechnologies)

IKZF2 = molecular target: T3, IKZF2 (Homo sapiens, UniProt Q96SW2+Q9UKS7); experiment: Western-blot assay of substrate protein degradation in hPBMCs, IKZF2; assay type: cell-based; details: 24 hours of compound treatment
T3 construct: endogenous in cells; host or cells: hPBMCs (Milecell Biotechnologies)

IKZF3 = molecular target: T4, IKZF3 (Homo sapiens, UniProt Q96SW2+Q9UKT9); experiment: Western-blot assay of substrate protein degradation in hPBMCs, IKZF3; assay type: cell-based; details: 24 hours of compound treatment
T4 construct: endogenous in cells; host or cells: hPBMCs (Milecell Biotechnologies)

CK1α = molecular target: T5, CK1α (Homo sapiens, UniProt P48729+Q96SW2); experiment: Western-blot assay of substrate protein degradation in hPBMCs, CK1α; assay type: cell-based; details: 24 hours of compound treatment
T5 construct: endogenous in cells; host or cells: hPBMCs (Milecell Biotechnologies)

GSPT1 = molecular target: T6, GSPT1 (Homo sapiens, UniProt P15170+Q96SW2); experiment: Western-blot assay of substrate protein degradation in hPBMCs, GSPT1; assay type: cell-based; details: 24 hours of compound treatment
T6 construct: endogenous in cells; host or cells: hPBMCs (Milecell Biotechnologies)

[1] = molecular target: T7, human Cereblon WT GST-tagged protein (Homo sapiens, UniProt Q96SW2); experiment: CRBN-binding affinity by HTRF (CEREBLON BINDING kit); details: HTRF inhibitory activity, CEREBLON BINDING kit; read-out: HTRF IC50
T7 construct: purchased CISBIO 64BDCRBNPEH

Jurkat = experiment: Tumor cell proliferation inhibition (CellTiter-Meiluncell Luminescent Cell Viability Assay), Jurkat; details: Homo sapiens, read-out: inhibitory activity (IC50, nM) against tumor cells proliferation, Jurkat
[2] = test system: Human acute T lymphocytic leukemia cells (Molt-4); experiment: Tumor cell proliferation inhibition (CellTiter-Meiluncell Luminescent Cell Viability Assay), Molt-4; details: MOLT-4, 96 h, read-out: inhibitory activity (IC50, nM) against tumor cells proliferation, Molt 4
CCRF-CEM = experiment: Tumor cell proliferation inhibition (CellTiter-Meiluncell Luminescent Cell Viability Assay), CCRF-CEM; details: Homo sapiens, 96 h, read-out: inhibitory activity (IC50, nM) against tumor cells proliferation, CCRF-CEM
CAL-62 = experiment: Tumor cell proliferation inhibition (CellTiter-Meiluncell Luminescent Cell Viability Assay), CAL-62; details: Homo sapiens, CAL-62, 96 h, read-out: inhibitory activity (IC50, nM) against tumor cells proliferation, CAL-62
Protocol: (§1) The tumor cells used herein were cultured in a cell culture medium listed in table 2 at 37°C in an incubator with 5% CO2. Prior to experimentation, all cell lines used were correctly identified by STR profiling, and tested negative for mycoplasma contamination using a mycoplasma detection kit through routine screenings.
(§2) On the following day, the test compounds of the present disclosure were subjected to serial dilution. […] Subsequently, 0.5 µL of the test compound dilution was transferred into the 96-well plate containing the cells, with each well containing 100 µL of cell culture medium. […] Into the 96-well plate, the diluted test compounds and corresponding detection reagents were added, resulting in final test compound concentrations of 500 nM and 10 nM, respectively. The experimental procedure is described below using the diluted 2 µM test compound as an example.
(§3) After the cells were treated with the compounds of the present disclosure for a specified period (the treatment durations were shown in Table 3), the cell viability assay reagent was added to the culture medium according to the kit's instructions to determine cell viability. […] All controls were treated using the same procedure as the compounds of the present disclosure. The growth inhibition curves for the compounds of the present disclosure were plotted using Prism GraphPad software, and the IC50 values were calculated therefrom.

MM.1R = experiment: Tumor cell proliferation inhibition (CellTiter-Meiluncell Luminescent Cell Viability Assay), MM.1R; details: Homo sapiens, 96 h, read-out: inhibitory activity (IC50, nM) against tumor cells proliferation, MM.1R
Protocol: as §1, §2, §3

NCI-H1975 = experiment: Tumor cell proliferation inhibition (CellTiter-Meiluncell Luminescent Cell Viability Assay), NCI-H1975; details: Homo sapiens, NCI-H1975, 96 h, read-out: inhibitory activity (IC50, nM) against tumor cells proliferation, H1975
[3] = test system: Human breast cancer cells (MDA-MB-231); experiment: Tumor cell proliferation inhibition (CellTiter-Meiluncell Luminescent Cell Viability Assay), MDA-MB-231; details: MDA-MB-231, 96 h, read-out: inhibitory activity (IC50, nM) against tumor cells proliferation, MDA-MB-231
[4] = compounds tested at 50 nM and 500 nM (concentration of the table not stated)
[5] = 50 nM and 500 nM tested (concentration behind the class not stated)

T1 sequence (P30291 whole entry): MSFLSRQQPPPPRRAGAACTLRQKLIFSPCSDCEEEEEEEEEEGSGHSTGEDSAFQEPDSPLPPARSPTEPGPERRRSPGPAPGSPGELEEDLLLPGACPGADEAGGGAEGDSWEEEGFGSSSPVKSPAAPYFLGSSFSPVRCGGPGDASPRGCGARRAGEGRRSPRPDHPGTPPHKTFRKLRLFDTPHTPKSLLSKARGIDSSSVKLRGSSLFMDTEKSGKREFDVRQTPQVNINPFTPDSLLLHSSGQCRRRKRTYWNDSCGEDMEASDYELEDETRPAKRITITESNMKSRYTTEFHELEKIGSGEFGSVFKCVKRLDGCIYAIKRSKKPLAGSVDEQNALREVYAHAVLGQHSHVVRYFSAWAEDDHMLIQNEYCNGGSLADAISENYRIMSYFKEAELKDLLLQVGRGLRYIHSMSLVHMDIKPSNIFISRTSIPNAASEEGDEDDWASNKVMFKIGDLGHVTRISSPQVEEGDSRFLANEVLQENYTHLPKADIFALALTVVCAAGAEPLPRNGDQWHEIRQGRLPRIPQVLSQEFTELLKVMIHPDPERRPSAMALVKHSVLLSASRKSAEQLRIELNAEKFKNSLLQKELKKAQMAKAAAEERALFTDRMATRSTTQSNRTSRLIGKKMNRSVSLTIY
T1 sequence (Q96SW2 whole entry): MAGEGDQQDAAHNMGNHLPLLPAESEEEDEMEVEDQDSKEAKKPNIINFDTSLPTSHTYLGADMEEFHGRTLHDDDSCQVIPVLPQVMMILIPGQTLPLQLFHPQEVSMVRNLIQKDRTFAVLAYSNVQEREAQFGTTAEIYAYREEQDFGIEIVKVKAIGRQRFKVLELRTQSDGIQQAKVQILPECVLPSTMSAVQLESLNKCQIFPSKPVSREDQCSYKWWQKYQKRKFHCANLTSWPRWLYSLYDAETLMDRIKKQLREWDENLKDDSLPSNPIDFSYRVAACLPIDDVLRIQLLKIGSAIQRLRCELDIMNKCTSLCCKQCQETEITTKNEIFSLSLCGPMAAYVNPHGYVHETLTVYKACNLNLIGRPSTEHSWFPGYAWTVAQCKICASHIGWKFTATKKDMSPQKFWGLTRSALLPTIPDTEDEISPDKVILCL
T1 sequence (Q16531 whole entry partner): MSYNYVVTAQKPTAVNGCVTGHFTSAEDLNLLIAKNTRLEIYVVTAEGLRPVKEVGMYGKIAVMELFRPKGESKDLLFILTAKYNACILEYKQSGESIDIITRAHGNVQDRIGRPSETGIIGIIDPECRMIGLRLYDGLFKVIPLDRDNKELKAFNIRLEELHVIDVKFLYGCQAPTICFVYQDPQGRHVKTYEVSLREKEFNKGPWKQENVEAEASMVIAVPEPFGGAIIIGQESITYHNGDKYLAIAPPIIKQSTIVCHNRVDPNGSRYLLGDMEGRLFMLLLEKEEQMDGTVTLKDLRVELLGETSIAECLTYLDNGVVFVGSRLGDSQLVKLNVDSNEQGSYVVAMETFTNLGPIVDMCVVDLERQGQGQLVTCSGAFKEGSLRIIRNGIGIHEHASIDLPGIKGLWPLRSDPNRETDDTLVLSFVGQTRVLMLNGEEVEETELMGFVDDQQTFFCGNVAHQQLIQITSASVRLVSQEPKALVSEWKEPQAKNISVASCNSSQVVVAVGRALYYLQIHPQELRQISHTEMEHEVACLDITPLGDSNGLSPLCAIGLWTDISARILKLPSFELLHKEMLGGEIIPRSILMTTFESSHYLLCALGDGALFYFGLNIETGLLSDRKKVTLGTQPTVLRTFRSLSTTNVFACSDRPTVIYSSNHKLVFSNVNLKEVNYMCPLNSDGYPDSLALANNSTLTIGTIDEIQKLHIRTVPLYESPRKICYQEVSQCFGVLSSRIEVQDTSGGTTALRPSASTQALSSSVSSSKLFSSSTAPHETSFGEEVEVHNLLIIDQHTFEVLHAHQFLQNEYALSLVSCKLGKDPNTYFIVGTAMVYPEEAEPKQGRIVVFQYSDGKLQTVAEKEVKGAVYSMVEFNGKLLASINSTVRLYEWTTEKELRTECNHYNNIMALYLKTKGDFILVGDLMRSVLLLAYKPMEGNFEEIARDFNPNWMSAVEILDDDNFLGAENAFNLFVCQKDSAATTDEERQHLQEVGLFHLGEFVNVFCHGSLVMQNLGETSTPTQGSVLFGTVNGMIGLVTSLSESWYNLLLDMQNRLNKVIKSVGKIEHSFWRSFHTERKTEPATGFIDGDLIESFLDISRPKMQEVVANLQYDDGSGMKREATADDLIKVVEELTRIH
T6 sequence (P15170 whole entry): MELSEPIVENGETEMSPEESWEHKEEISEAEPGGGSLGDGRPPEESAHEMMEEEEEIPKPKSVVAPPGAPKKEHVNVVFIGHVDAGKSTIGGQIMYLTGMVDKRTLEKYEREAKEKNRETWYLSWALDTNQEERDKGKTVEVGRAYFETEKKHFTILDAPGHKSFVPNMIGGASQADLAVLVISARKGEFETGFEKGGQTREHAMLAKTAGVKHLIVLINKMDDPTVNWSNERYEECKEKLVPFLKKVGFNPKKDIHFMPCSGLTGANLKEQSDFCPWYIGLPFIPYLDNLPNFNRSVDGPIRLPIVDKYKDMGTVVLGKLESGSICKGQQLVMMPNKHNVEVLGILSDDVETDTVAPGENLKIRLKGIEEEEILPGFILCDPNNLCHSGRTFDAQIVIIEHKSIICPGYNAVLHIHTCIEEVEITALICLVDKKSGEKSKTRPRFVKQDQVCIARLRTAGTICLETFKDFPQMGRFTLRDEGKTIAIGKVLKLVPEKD
T6 sequence (Q96SW2 whole entry): as the sequence (Q96SW2 whole entry) above
T6 sequence (Q16531 whole entry partner): as the sequence (Q16531 whole entry partner) above
T5 sequence (P48729 whole entry): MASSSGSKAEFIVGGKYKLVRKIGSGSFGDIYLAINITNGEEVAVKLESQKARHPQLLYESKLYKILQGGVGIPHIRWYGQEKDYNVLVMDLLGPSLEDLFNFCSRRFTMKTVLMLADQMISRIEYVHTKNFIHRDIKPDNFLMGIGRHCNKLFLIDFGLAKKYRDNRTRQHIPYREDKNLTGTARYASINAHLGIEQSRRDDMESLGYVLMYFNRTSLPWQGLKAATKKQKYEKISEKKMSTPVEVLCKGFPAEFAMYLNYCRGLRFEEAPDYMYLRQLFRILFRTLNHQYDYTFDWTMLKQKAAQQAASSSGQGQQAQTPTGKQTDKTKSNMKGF
T5 sequence (Q96SW2 whole entry): as the sequence (Q96SW2 whole entry) above
T5 sequence (Q16531 whole entry partner): as the sequence (Q16531 whole entry partner) above
T7 sequence (Q96SW2 whole entry): as the sequence (Q96SW2 whole entry) above
T2 sequence (Q13422 whole entry): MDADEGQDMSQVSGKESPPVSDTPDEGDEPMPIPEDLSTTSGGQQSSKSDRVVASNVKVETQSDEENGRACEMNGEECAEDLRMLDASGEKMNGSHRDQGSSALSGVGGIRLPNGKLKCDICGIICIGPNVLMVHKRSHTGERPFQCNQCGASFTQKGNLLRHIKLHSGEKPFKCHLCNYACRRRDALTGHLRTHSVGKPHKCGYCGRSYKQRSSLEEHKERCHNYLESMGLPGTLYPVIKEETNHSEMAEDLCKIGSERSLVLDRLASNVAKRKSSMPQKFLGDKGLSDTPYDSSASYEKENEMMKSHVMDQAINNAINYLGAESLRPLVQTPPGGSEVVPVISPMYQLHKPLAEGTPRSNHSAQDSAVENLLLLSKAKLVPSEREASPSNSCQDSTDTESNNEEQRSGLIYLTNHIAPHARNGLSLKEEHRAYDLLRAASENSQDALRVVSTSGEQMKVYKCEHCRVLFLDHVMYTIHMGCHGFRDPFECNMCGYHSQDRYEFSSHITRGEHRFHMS
T2 sequence (Q96SW2 whole entry): as the sequence (Q96SW2 whole entry) above
T2 sequence (Q16531 whole entry partner): as the sequence (Q16531 whole entry partner) above
T3 sequence (Q9UKS7 whole entry): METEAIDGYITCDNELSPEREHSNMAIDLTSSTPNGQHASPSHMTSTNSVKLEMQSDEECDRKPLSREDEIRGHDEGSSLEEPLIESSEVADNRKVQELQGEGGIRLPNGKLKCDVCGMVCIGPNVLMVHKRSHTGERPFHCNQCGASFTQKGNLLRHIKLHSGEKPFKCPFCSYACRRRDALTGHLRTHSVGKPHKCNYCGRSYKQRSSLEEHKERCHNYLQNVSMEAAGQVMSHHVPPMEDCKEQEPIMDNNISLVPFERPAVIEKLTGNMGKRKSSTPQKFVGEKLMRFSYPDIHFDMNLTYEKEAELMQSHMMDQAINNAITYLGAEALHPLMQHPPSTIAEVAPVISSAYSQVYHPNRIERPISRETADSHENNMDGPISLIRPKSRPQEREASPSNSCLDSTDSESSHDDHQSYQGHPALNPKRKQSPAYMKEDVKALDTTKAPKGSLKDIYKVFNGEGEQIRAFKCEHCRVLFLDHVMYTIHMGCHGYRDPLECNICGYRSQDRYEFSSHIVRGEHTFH
T3 sequence (Q96SW2 whole entry): as the sequence (Q96SW2 whole entry) above
T3 sequence (Q16531 whole entry partner): as the sequence (Q16531 whole entry partner) above

Compound | Weel substrate protein remaining % (WEE1; [4]) | IKZF 1 substrate protein remaining % (IKZF1; [4]) | IKZF2 substrate protein remaining % (IKZF2; [4]) | IKZF3 substrate protein remaining % (IKZF3; [4]) | CK1a substrate protein remaining % (CK1α; [4]) | GSPT1 substrate protein remaining % (GSPT1; [4]) | IC50 [1] [nM] | IC50 (Jurkat; 96 h) [nM] | IC50 [2] [nM] | IC50 (NCI-H1975) [nM] | IC50 [3] [nM] | also measured
O=C1CCC(N2Cc3cc(CN4CCN(c5cccc(Cl)c5Cl)CC4)cc(F)c3C2=O)C(=O)N1 (stereo not drawn) [GT-04445, 3-(5-((4-(2,3-dichlorophenyl)piperazin-1-yl)methyl)-7-fluoro-1-oxoisoindolin-2-yl)piperidine-2,6-dione] | B (80%< substrate protein remaining %≤ 100%) | A (0% ≤ substrate protein remaining % ≤ 80%) | A (0% ≤ substrate protein remaining % ≤ 80%) | A (0% ≤ substrate protein remaining % ≤ 80%) | B (80%< substrate protein remaining %≤ 100%) | A (0% ≤ substrate protein remaining % ≤ 80%) | 500 to 1000 | 100 to 500 | 100 to 500 | – | – | IC50 (CCRF-CEM): 100 to 500 nM
O=C1CCC(N2Cc3cc(CN4CCN(c5cnnc(Cl)c5Cl)CC4)ccc3C2=O)C(=O)N1 (stereo not drawn) [GT-04544, 3-(5-((4-(5,6-dichloropyridazin-4-yl)piperazin-1-yl)methyl)-1-oxoisoindolin-2-yl)piperidine-2,6-dione] | A (0% ≤ substrate protein remaining % ≤ 80%) | A (0% ≤ substrate protein remaining % ≤ 80%) | A (0% ≤ substrate protein remaining % ≤ 80%) | A (0% ≤ substrate protein remaining % ≤ 80%) | A (0% ≤ substrate protein remaining % ≤ 80%) | A (0% ≤ substrate protein remaining % ≤ 80%) | 500 to 1000 | – | – | – | – | IC50 (CAL-62): 50 to 100 nM
O=C1CCC(N2Cc3cc(CN4CCN(c5cccs5)CC4)ccc3C2=O)C(=O)N1 (stereo not drawn) [GT-04545, 3-(1-oxo-5-((4-(thiophen-2-yl)piperazin-1-yl)methyl)isoindolin-2-yl)piperidine-2,6-dione] | A (0% ≤ substrate protein remaining % ≤ 80%) | A (0% ≤ substrate protein remaining % ≤ 80%) | A (0% ≤ substrate protein remaining % ≤ 80%) | A (0% ≤ substrate protein remaining % ≤ 80%) | A (0% ≤ substrate protein remaining % ≤ 80%) | A (0% ≤ substrate protein remaining % ≤ 80%) | < 500 | – | – | – | – | IC50 (CAL-62): 100 to 500 nM
O=C1CCC(N2Cc3cc(CN4CCN(c5ccsc5)CC4)ccc3C2=O)C(=O)N1 (stereo not drawn) [GT-04547, 3-(1-oxo-5-((4-(thiophen-3-yl)piperazin-1-yl)methyl)isoindolin-2-yl)piperidine-2,6-dione] | A (0% ≤ substrate protein remaining % ≤ 80%) | A (0% ≤ substrate protein remaining % ≤ 80%) | A (0% ≤ substrate protein remaining % ≤ 80%) | A (0% ≤ substrate protein remaining % ≤ 80%) | A (0% ≤ substrate protein remaining % ≤ 80%) | A (0% ≤ substrate protein remaining % ≤ 80%) | 500 to 1000 | 100 to 500 | 100 to 500 | – | – | IC50 (MM.1R): 100 to 500 nM
Cc1cscc1N1CCN(Cc2ccc3c(c2)CN(C2CCC(=O)NC2=O)C3=O)CC1 (stereo not drawn) [GT-04548, 3-(5-((4-(4-methylthiophen-3-yl)piperazin-1-yl)methyl)-1-oxoisoindolin-2-yl)piperidine-2,6-dione] | A (0% ≤ substrate protein remaining % ≤ 80%) | A (0% ≤ substrate protein remaining % ≤ 80%) | A (0% ≤ substrate protein remaining % ≤ 80%) | A (0% ≤ substrate protein remaining % ≤ 80%) | A (0% ≤ substrate protein remaining % ≤ 80%) | A (0% ≤ substrate protein remaining % ≤ 80%) | 500 to 1000 | 10 to 50 | 10 to 50 | 500 to 1000 | 500 to 1000 | IC50 (MM.1R): 10 to 50 nM
O=C1CCC(N2Cc3cc(CN4C5CC4CN(c4cccc(Cl)c4Cl)C5)ccc3C2=O)C(=O)N1 (stereo not drawn) [GT-04712, 3-(5-((3-(2,3-dichlorophenyl)-3,6-diazabicyclo[3.1.1]heptan-6-yl)methyl)-1-oxoisoindolin-2-yl)piperidine-2,6-dione] | B (80%< substrate protein remaining %≤ 100%) | B (80%< substrate protein remaining %≤ 100%) | B (80%< substrate protein remaining %≤ 100%) | A (0% ≤ substrate protein remaining % ≤ 80%) | A (0% ≤ substrate protein remaining % ≤ 80%) | A (0% ≤ substrate protein remaining % ≤ 80%) | 500 to 1000 | – | 10 to 50 | 100 to 500 | 50 to 100 | –
O=C1CCC(N2Cc3cc(CN4CC=C(c5c[nH]c6cc(F)ccc56)CC4)ccc3C2=O)C(=O)N1 (stereo not drawn) [GT-04722, 3-(5-((4-(6-fluoro-1H-indol-3-yl)-3,6-dihydropyridin-1(2H)-yl)methyl)-1-oxoisoindolin-2-yl)piperidine-2,6-dione] | B (80%< substrate protein remaining %≤ 100%) | B (80%< substrate protein remaining %≤ 100%) | B (80%< substrate protein remaining %≤ 100%) | A (0% ≤ substrate protein remaining % ≤ 80%) | A (0% ≤ substrate protein remaining % ≤ 80%) | A (0% ≤ substrate protein remaining % ≤ 80%) | < 500 | – | 50 to 100 | 100 to 500 | 100 to 500 | –
O=C1CCC(N2C(=O)c3ccc(CN4CCC(c5ncc6ccsc6n5)CC4)cc3C2=O)C(=O)N1 (stereo not drawn) [GT-06652, 2-(2,6-dioxopiperidin-3-yl)-5-((4-(thieno[2,3-d]pyrimidin-2-yl)piperidin-1-yl)methyl)isoindoline-1,3-dione] | – | – | – | – | – | – | – | – | – | – | – | Weel substrate protein remaining % (WEE1; [5]): A (0% ≤ substrate protein remaining % ≤ 80%); IKZF 1 substrate protein remaining % (IKZF1; [5]): B (80%< substrate protein remaining %≤ 100%); IKZF2 substrate protein remaining % (IKZF2; [5]): A (0% ≤ substrate protein remaining % ≤ 80%); IKZF3 substrate protein remaining % (IKZF3; [5]): B (80%< substrate protein remaining %≤ 100%); CK1a substrate protein remaining % (CK1α; [5]): B (80%< substrate protein remaining %≤ 100%); GSPT1 substrate protein remaining % (GSPT1; [5]): A (0% ≤ substrate protein remaining % ≤ 80%); IC50 (Jurkat): 100 to 500 nM

Source: patent publication EP4745137A1 (Gluetacs Therapeutics (Shanghai) Co., Ltd., priority 2023, dated 2025)
